Activity calls are given as the source filed them. The calls are words filed in the database; no cut-off is given here.
Legend:
Mus musculus [1] = assay: Neurotoxicity in Mus musculus Swiss albino (mouse) assessed as motor impairment at 600 mg/kg, ip measured for 1 min by rotarod test; type: toxicity, organism-based; design: dose 600 mg/kg, route intraperitoneal; settings: in vivo
Mus musculus [2] = assay: Anticonvulsant activity in Mus musculus Swiss albino (mouse) assessed as protection against subcutaneous pentylenetetrazol-induced clonic spasms at 30 mg/kg, ip after 0.5 hr post compound treatment; type: functional, organism-based; design: dose 30 mg/kg
Mus musculus [3] = assay: Neurotoxicity in Mus musculus Swiss albino (mouse) assessed as motor impairment at 100 mg/kg, ip measured for 1 min by rotarod test; type: toxicity, organism-based; design: dose 100 mg/kg, route intraperitoneal; settings: in vivo
Mus musculus [4] = assay: Anticonvulsant activity in Mus musculus Swiss albino (mouse) assessed as protection against subcutaneous pentylenetetrazol-induced clonic spasms at 30 mg/kg, ip after 4 hr post compound treatment; type: functional, organism-based; design: dose 30 mg/kg
Mus musculus [5] = assay: Anticonvulsant activity in Mus musculus Swiss albino (mouse) assessed as protection against maximal electroshock-induced seizures at 300 mg/kg, ip measured after 0.5 hr post compound treatment; type: functional, organism-based; design: dose 300 mg/kg
Mus musculus [6] = assay: Anticonvulsant activity in Mus musculus Swiss albino (mouse) assessed as protection against subcutaneous pentylenetetrazol-induced clonic spasms at 300 mg/kg, ip after 4 hr post compound treatment; type: functional, organism-based; design: dose 300 mg/kg
Mus musculus [7] = assay: Anticonvulsant activity in Mus musculus Swiss albino (mouse) assessed as protection against subcutaneous pentylenetetrazol-induced clonic spasms at 300 mg/kg, ip after 0.5 hr post compound treatment; type: functional, organism-based; design: dose 300 mg/kg
Mus musculus [8] = assay: Anticonvulsant activity in Mus musculus Swiss albino (mouse) assessed as protection against maximal electroshock-induced seizures at 300 mg/kg, ip measured after 4 hr post compound treatment; type: functional, organism-based; design: dose 300 mg/kg
Mus musculus [9] = assay: Anticonvulsant activity in Mus musculus Swiss albino (mouse) assessed as protection against maximal electroshock-induced seizures at 30 mg/kg, ip measured after 4 hr post compound treatment; type: functional, organism-based; design: dose 30 mg/kg
[10] = Protective index, ratio of TD50 for neurotoxicity in Mus musculus Swiss albino (mouse) to ED50 for anticonvulsant activity in Mus musculus Swiss albino (mouse) measured 0.5 hr post compound treatment; type: toxicity, organism-based; settings: in vivo, read-out: Ratio TD50/ED50
Mus musculus [11] = assay: Anticonvulsant activity in ip dosed Mus musculus Swiss albino (mouse) assessed as protection against maximal electroshock-induced seizures measured after 0.5 hr post compound treatment; type: functional
[12] = Neurotoxicity in ip dosed Mus musculus Swiss albino (mouse) assessed as motor impairment measured after 0.5 hr post compound treatment for 1 min by rotarod test; type: toxicity, organism-based; settings: in vivo
Mus musculus [13] = assay: Anticonvulsant activity in Mus musculus Swiss albino (mouse) assessed as protection against maximal electroshock-induced seizures at 30 mg/kg, ip measured after 0.5 hr post compound treatment; type: functional, organism-based; design: dose 30 mg/kg
Mus musculus [14] = assay: Anticonvulsant activity in ip dosed Mus musculus Swiss albino (mouse) assessed as protection against maximal electroshock-induced seizures measured; type: functional
[15] = Protective index, ratio of TD50 for neurotoxicity in Mus musculus Swiss albino (mouse) to ED50 for anticonvulsant activity in Mus musculus Swiss albino (mouse); type: toxicity, organism-based; settings: in vivo, read-out: Ratio TD50/ED50

Row | Structure (SMILES) | Activity (Mus musculus [1]) | Activity (Mus musculus [3]) | Activity (Mus musculus [5]) | Activity (Mus musculus [6]) | Activity (Mus musculus [7]) | Activity (Mus musculus [8]) | Activity (Mus musculus [9]) | Activity (Mus musculus [13]) | other results
1 | CN1C(=O)CN=C(c2ccccc2)c2cc(Cl)ccc21 [DIAZEPAM] | Toxic | Non-toxic |  |  |  |  |  |  | Activity (Mus musculus [2]): Active; Activity (Mus musculus [4]): Active
2 | NC(=S)NNC(=O)Cc1ccccc1-c1cccnc1 | Toxic | Non-toxic | inactive | inactive | inactive | inactive |  |  | 
3 | NC(=O)Cc1ccccc1-c1cccnc1 | Toxic | Non-toxic |  |  |  |  | Active | Active | selectivity ratio at 0.5 h [10]: 26; ED50 (Mus musculus [11]): 8.28 mg/kg; TD50 at 0.5 hr [12]: 215 mg/kg
4 | CC(C)(C)NC(=O)NCc1ccccc1-c1cccnc1 | Toxic | Non-toxic | inactive | inactive | inactive | inactive |  |  | 
5 | NC(=O)NNC(=O)Cc1ccccc1-c1cccnc1 | Toxic | Non-toxic | inactive | inactive | inactive | inactive |  |  | 
6 | O=C1NC(=O)C(c2ccccc2)(c2ccccc2)N1 [PHENYTOIN] | Toxic | Non-toxic |  |  |  |  | Active | Active | 
7 | O=C(NCc1ccccc1-c1cccnc1)NC1CCCCC1 | Toxic | Non-toxic | inactive | inactive | inactive | inactive |  |  | 
8 | CCC1(c2ccccc2)C(=O)NC(=O)NC1=O [PHENOBARBITAL] | Toxic | Non-toxic |  |  |  |  |  |  | Activity (Mus musculus [2]): Active; Activity (Mus musculus [4]): Active
9 | NC(=O)N1c2ccccc2C=Cc2ccccc21 [CARBAMAZEPINE] | Toxic | Non-toxic |  |  |  |  | Active | Active | 
10 | O=C1CCCN1C(=O)Cc1ccccc1Nc1ccccc1 | Toxic | Non-toxic |  |  |  |  |  |  | ED50 (Mus musculus [14]): 8 mg/kg; selectivity ratio [15]: 87.5

Source: ChEMBL document CHEMBL3045718, “Substituted 2-[2-(pyridin-3-yl) phenyl] acetamides and ureas: design, synthesis, and anticonvulsant screening in mice” (Med Chem Res, 2012)
